{
  "source": "patent US20260263481A1",
  "about": "“COMPOSITION FOR TREATING OR PREVENTING KIDNEY DISEASES” (ORGANOIDSCIENCES LTD., priority 2022, published 2026)",
  "key": {"[1]": {"system": "human renal tubule cell line HK-2", "assay": "TUNEL assay for apoptosis in HK-2 cells", "format": "cell-based", "protocol": "To evaluate the effect of PGF2α on kidney diseases, the influence of PGF2α on apoptosis in kidney cells induced by antibiotic treatment was assessed. Colistin, a type of antibiotic, is known to accumulate in proximal tubular cells and induce apoptosis by increasing the expression of the Fas death receptor or by increasing the generation of reactive oxygen species. […] After 48 hours of incubation, a TUNEL assay was conducted to assess apoptosis. Cells that tested positive in the TUNEL assay were considered apoptotic cells.\nSpecifically, a vehicle-treated group, a group treated with vehicle and colistin, and a group treated with bimatoprost and colistin were prepared. Apoptosis in HK-2 cells was analyzed using a TUNEL assay."}, "[2]": {"system": "human renal tubule cell line HK-2", "assay": "Reactive oxygen species (ROS) generation in HK-2 cells", "format": "cell-based", "protocol": "After 48 hours of incubation, ROS generated in the HK-2 cells was analyzed.\nSpecifically, intracellular reactive oxygen species (ROS) levels were measured by fluorescence spectroscopy after treatment with bimatoprost and/or colistin. Saline containing 1% DMSO was used as a vehicle."}, "[3]": {"system": "Escherichia coli", "assay": "Paper disk antibacterial activity on LB medium", "format": "cell-based", "settings": "24 hours; for growth of E. coli: substance alone on paper disk", "protocol": "Specifically, Escherichia coli, a Gram-negative bacterium, was spread onto an LB medium, and paper disks were treated with bimatoprost and/or colistin. Saline containing 1% DMSO was used as a vehicle. After placing the paper disks onto the LB medium, incubation was carried out for 24 hours."}, "[4]": {"system": "human renal tubule cell line HK-2", "assay": "Cytotoxicity / cell viability assay in HK-2 cells", "protocol": "Specifically, the human renal tubule cell line HK-2 was treated with PGF2α at a concentration of 50 μM and with colistin at 400 μg/mL. In the case of pretreatment with PGF2α, colistin was treated 24 hours after treatment with PGF2α, and the cells were cultured for 48 hours, followed by an assay to evaluate cytotoxicity. In the case of co-treatment, PGF2α and colistin were treated simultaneously, and the cells were cultured for 48 hours, followed by the assay.\nSpecifically, bimatoprost was treated to human renal tubule cell line HK-2 at concentrations of 0.1 μM, 0.5 μM, 1.0 μM, 5.0 μM, 10 μM, 20 μM, and 50 μM, and the vehicle-treated group was used as a control. In the case of pretreatment with bimatoprost, colistin was treated 24 hours after bimatoprost treatment, followed by incubation for 48 hours and a cytotoxicity assay. In the case of co-treatment, bimatoprost and colistin were treated simultaneously, followed by 48 hours of incubation and the cytotoxicity assay."}, "[5]": {"system": "C57BL/6N mice", "assay": "Colistin-induced nephrotoxicity model in mice", "format": "in vivo", "settings": "14 days", "protocol": "Specifically, a colistin-induced nephrotoxicity model was established using 6-week-old C57BL/6N mice. The control group (vehicle-treated group) was prepared by intraperitoneally injecting mice with vehicle (saline containing 1% DMSO) every 12 hours for 14 days. The colistin-treated group was prepared by intraperitoneally injecting colistin at 10 mg/kg every 12 hours for 14 days. The bimatoprost-treated group was prepared by intraperitoneally injecting bimatoprost at 1 mg/kg every 12 hours for 14 days. The bimatoprost and colistin co-treatment group was prepared by intraperitoneally injecting bimatoprost at 1 mg/kg and colistin at 10 mg/kg every 12 hours for 14 days. After 14 days of administration, tissue, blood, and kidneys were collected from the mice, and key indicators of kidney disease, including kidney color, body weight, blood urea nitrogen levels, blood creatinine levels, and expression of kidney injury marker-1 (KIM-1), were analyzed."}, "[6]": {"settings": "PGF2α 50 μM co-treated with colistin 400 μg/mL, 48 hours"}, "[7]": {"settings": "bimatoprost 1 mg/kg + colistin 10 mg/kg i.p. every 12 hours"}, "[8]": {"settings": "colistin 10 mg/kg i.p. every 12 hours"}},
  "data": [
    {"molecule": "CCCCC[C@H](O)/C=C/[C@@H]1[C@@H](C/C=C\\CCCC(=O)O)[C@@H](O)C[C@H]1O", "note": "[PGF2α, prostaglandin F2α]", "values": [
      {"measurement": "colistin-induced increase in apoptosis", "setting": "[1]; [6]", "result": "reduced by about half"},
      {"measurement": "reduction of colistin-induced increase in ROS", "setting": "[2]; [6]", "result": "approximately 1.5 fold"},
      {"measurement": "ROS levels", "setting": "[2]; PGF2α alone, 50 μM, 48 hours", "result": "decreased"}
    ]},
    {"molecule": "CCNC(=O)CCC/C=C\\C[C@@H]1[C@@H](/C=C/[C@@H](O)CCc2ccccc2)[C@H](O)C[C@@H]1O", "note": "[bimatoprost]", "values": [
      {"measurement": "inhibitory effect on E. coli growth", "setting": "[3]; colistin and bimatoprost together on paper disk", "result": "at the same level as that observed in the group treated with colistin alone"},
      {"measurement": "growth of E. coli", "setting": "[3]", "result": "not inhibited"},
      {"measurement": "extent of cell death induced by colistin compared to cells not treated with bimatoprost", "setting": "[4]; bimatoprost pretreated at 10 μM", "result": "reduced by approximately fourfold"},
      {"measurement": "effect on colistin-induced cell death", "setting": "[4]; bimatoprost pretreatment 24 hours before colistin, then 48 hours", "result": "reduced colistin-induced cell death"},
      {"measurement": "KIM-1 area compared to the colistin-treated group", "setting": "[5]; [7]", "result": "reduced by about eight times"},
      {"measurement": "KIM-1 expression in kidney", "setting": "[5]; [7]", "result": "barely observed"},
      {"measurement": "blood creatinine levels", "setting": "[5]; [7]", "result": "lower than those in the colistin-treated group"},
      {"measurement": "blood urea nitrogen levels", "setting": "[5]; [7]", "result": "lower than those in the colistin-treated group"},
      {"measurement": "body weight", "setting": "[5]; [7]", "result": "weight loss was not observed"},
      {"measurement": "kidney color", "setting": "[5]; [7]", "result": "recovered to a level similar to that of the vehicle-treated group"},
      {"measurement": "number of apoptotic cells compared to the group treated with vehicle and colistin", "setting": "[1]; bimatoprost and colistin co-treated", "result": "reduced by approximately threefold"},
      {"measurement": "colistin-induced increase in ROS", "setting": "[2]; bimatoprost and colistin, level similar to vehicle-treated group", "result": "reduced to approximately half"}
    ]},
    {"molecule": "colistin", "values": [
      {"measurement": "growth of E. coli", "setting": "[3]", "result": "markedly suppressed"},
      {"measurement": "cells survived compared to those not treated with colistin", "setting": "[4]; colistin 400 μg/mL, 48 hours", "result": "about 50%"},
      {"measurement": "KIM-1 expression in kidney", "setting": "[5]; [8]", "result": "clearly observed"},
      {"measurement": "blood creatinine levels relative to vehicle-treated group", "setting": "[5]; [8]", "result": "approximately 1.5 times"},
      {"measurement": "blood urea nitrogen levels relative to vehicle-treated group", "setting": "[5]; [8]", "result": "approximately 1.5 times"},
      {"measurement": "body weight", "setting": "[5]; [8]", "result": "reduction in body weight after day 6"},
      {"measurement": "kidney color", "setting": "[5]; [8]", "result": "became paler"},
      {"measurement": "increase in apoptosis compared to cells not treated with colistin", "setting": "[1]; colistin 400 μg/mL, 48 hours", "result": "approximately 30%"},
      {"measurement": "apoptotic cells (TUNEL)", "setting": "[1]; vehicle and colistin vs vehicle-treated group (Example 2-2)", "result": "significant increase in apoptotic cells"},
      {"measurement": "ROS levels compared to cells not treated with colistin", "setting": "[2]; colistin 400 μg/mL, 48 hours (Example 1-3)", "result": "more than fivefold"},
      {"measurement": "increase in ROS levels compared to the vehicle-treated group", "setting": "[2]; colistin-treated group (Example 2-3), fluorescence spectroscopy", "result": "more than 2.5 fold"}
    ]}
  ]
}
